Reference: paper PMC8950151, “Synthesis and Evaluation of the Antifungal and Toxicological Activity of Nitrofuran Derivatives” (Pharmaceutics, 2022)
In brackets after ≈: the same amount, converted by molar mass. Where two headings read alike, the source gives them in different places.

Legend:
[1] = system: Cryptococcus neoformans (H99/ATCC 208821); experiment: Susceptibility test (CLSI M27-A3 broth microdilution, resazurin readout), MIC90; type: cell-based; conditions: ATCC208821, 48 h
[2] = system: Trichophyton mentagrophytes (ATCC 11481); experiment: Susceptibility assay for dermatophytes (CLSI M38-A2, resazurin), MIC90; type: cell-based; conditions: Trichophyton mentagrophytes, ATCC11481, 96 h, T. mentagrophytes, 35 °C, read-out: MIC90
in vitro = conditions: human
C. krusei (ATCC 6258) [3] = experiment: Minimum fungicidal concentration (MFC); type: cell-based, Candida krusei; conditions: Pichia kudriavzevii, ATCC6258
T. rubrum (ATCC 28289) [4] = experiment: Susceptibility assay for dermatophytes (CLSI M38-A2, resazurin), MIC90; type: cell-based; conditions: Trichophyton rubrum, ATCC28289, 96 h, 35 °C
[5] = system: Candida albicans (ATCC 90028); experiment: Susceptibility test (CLSI M27-A3 broth microdilution, resazurin readout), MIC90; type: cell-based; conditions: ATCC90028, C. albicans, 24 h, 37 °C
[6] = system: Histoplasma capsulatum (G217-B/ATCC 26032); experiment: microbe, parasite or virus in culture; type: cell-based; conditions: ATCC26032, 144 h
C. glabrata (ATCC 90030) [7] = experiment: Minimum fungicidal concentration (MFC); type: cell-based, Candida glabrata; conditions: Nakaseomyces glabratus, ATCC90030
C. glabrata (ATCC 90030) [8] = experiment: Susceptibility test (CLSI M27-A3 broth microdilution, resazurin readout), MIC90; type: cell-based, Candida glabrata; conditions: Nakaseomyces glabratus, ATCC90030, 24 h, 37 °C
T. rubrum (ATCC 28289) [9] = experiment: Minimum fungicidal concentration (MFC); type: cell-based, Trichophyton rubrum; conditions: Trichophyton rubrum, ATCC28289
[10] = system: Cryptococcus neoformans (H99/ATCC 208821); experiment: Minimum fungicidal concentration (MFC); type: cell-based; conditions: ATCC208821, C. neoformans
[11] = system: Histoplasma capsulatum (G217-B/ATCC 26032); experiment: microbe, parasite or virus in culture; type: cell-based; conditions: ATCC26032
[12] = system: Trichophyton mentagrophytes (ATCC 11481); experiment: Minimum fungicidal concentration (MFC); type: cell-based; conditions: Trichophyton mentagrophytes, ATCC11481; T. mentagrophytes
[13] = system: Paracoccidioides brasiliensis (Pb 18); experiment: microbe, parasite or virus in culture; type: cell-based; conditions: Paracoccidioides brasiliensis
C. krusei (ATCC 6258) [14] = experiment: Susceptibility test (CLSI M27-A3 broth microdilution, resazurin readout), MIC90; type: cell-based, Candida krusei; conditions: Pichia kudriavzevii, ATCC6258, 24 h
[15] = system: Candida albicans (ATCC 90028); experiment: Minimum fungicidal concentration (MFC); type: cell-based; conditions: ATCC90028, C. albicans
[16] = system: A549 (ATCC CCL-185) lung epithelial cell line; experiment: Cytotoxicity assay in monolayer by resazurin colorimetric method; type: cell-based; conditions: Homo sapiens, A549 cells, 72 h
in vivo = conditions: AU37 [glp-4 (bn2) I, sek-1 (km4) X], Caenorhabditis elegans, C. elegans larvae viability
Experimental: The experiments were carried out with the mutant strain (AU37 [glp-4 (bn2) I; […]]). The strain was maintained on plates containing nematode growth medium (NGM) seeded with Escherichia coli OP50 at 16 °C. The stage of synchronization of young adults at stage L4 was performed for the toxicity test. About 20 larvae were transferred to each well of 96-well plates containing 100 μL of a medium composed of 60% of 50 mM NaCl; 40% BHI broth; 10 mg/mL cholesterol in ethanol; 200 mg/mL ampicillin and 90 mg/mL kanamycin. Then, 100 μL of dilutions of nitrofuran derivatives (showing the best selectivity index against the fungal species) were added. […] Plates were incubated at 25 °C for 24 h. Survival was assessed by the mobility and shape of the nematode (stick-shaped larvae were considered dead, while sinusoidal larvae were considered alive) under an inverted optical microscope on 40× objective lenses.

| SMILES | MIC90 [1] | MIC90 [2] | IC50 (in vitro) | MFC (C. krusei (ATCC 6258) [3]) | MIC90 (T. rubrum (ATCC 28289) [4]) | MIC90 [5] | MIC90 [6] | MFC (C. glabrata (ATCC 90030) [7]; C. glabrata, read-out: MFC) | MIC90 (C. glabrata (ATCC 90030) [8]) | MFC (T. rubrum (ATCC 28289) [9]) | MFC [10] | MFC [11] | MFC [12] | MFC [13] | MIC90 (C. krusei (ATCC 6258) [14]) | MFC [15] | IC50 [16] | viability at 24 h, 250 µg/mL (in vivo) | MFC (C. glabrata (ATCC 90030) [7]) |
| --- | --- | --- | --- | --- | --- | --- | --- | --- | --- | --- | --- | --- | --- | --- | --- | --- | --- | --- | --- |
| O=C(/C=C/c1ccc([N+](=O)[O-])o1)c1ccccc1 [Compound 8] | 31.2 µg/mL (≈ 128 µM) | 0.98 µg/mL (≈ 4.03 µM) | 6.66 µg/mL (≈ 27.4 µM) | > 250 µg/mL | 0.98 µg/mL (≈ 4.03 µM) | 7.8 µg/mL (≈ 32.1 µM) | 15.6 µg/mL (≈ 64.2 µM) | > 250 µg/mL | 7.81 µg/mL (≈ 32.1 µM) | 1.95 µg/mL (≈ 8.02 µM) | 31.2 µg/mL (≈ 128 µM) | 15.6 µg/mL (≈ 64.2 µM) | 1.95 µg/mL (≈ 8.02 µM) | 1.95 µg/mL (≈ 8.02 µM) | 250 µg/mL (≈ 1030 µM) | > 250 µg/mL | 53.8 µg/mL (≈ 221 µM) |  |  |
| O=C(/C=C/c1ccc([N+](=O)[O-])o1)c1ccc(F)cc1 [Compound 9] | 7.81 µg/mL (≈ 29.9 µM) | 1.95 µg/mL (≈ 7.47 µM) | 47.2 µg/mL (≈ 181 µM) | > 250 µg/mL | 0.98 µg/mL (≈ 3.75 µM) | 15.6 µg/mL (≈ 59.8 µM) | 3.9 µg/mL (≈ 14.9 µM) | > 250 µg/mL | 31.2 µg/mL (≈ 120 µM) | 1.95 µg/mL (≈ 7.47 µM) | 15.6 µg/mL (≈ 59.8 µM) | 3.9 µg/mL (≈ 14.9 µM) | 1.95 µg/mL (≈ 7.47 µM) | 1.95 µg/mL (≈ 7.47 µM) | 250 µg/mL (≈ 957 µM) | 31.2 µg/mL (≈ 120 µM) | 23.4 µg/mL (≈ 89.6 µM) |  |  |
| O=C(/C=C/c1ccc([N+](=O)[O-])o1)c1ccc(Cl)cc1 [Compound 10] | 250 µg/mL (≈ 900 µM) | 3.9 µg/mL (≈ 14 µM) | 215 µg/mL (≈ 776 µM) | > 250 µg/mL | 3.9 µg/mL (≈ 14 µM) | 250 µg/mL (≈ 900 µM) | 7.81 µg/mL (≈ 28.1 µM) | > 250 µg/mL | > 250 µg/mL | 7.81 µg/mL (≈ 28.1 µM) | ≥ 250 µg/mL | 15.6 µg/mL (≈ 56.3 µM) | 7.81 µg/mL (≈ 28.1 µM) | 0.98 µg/mL (≈ 3.53 µM) | > 250 µg/mL | > 250 µg/mL | 38.7 µg/mL (≈ 139 µM) |  |  |
| O=C(/C=C/c1ccc([N+](=O)[O-])o1)c1ccc(Br)cc1 [Compound 11] | ≥ 250 µg/mL | 7.8 µg/mL (≈ 24.2 µM) | 62.6 µg/mL (≈ 194 µM) | > 250 µg/mL | 7.8 µg/mL (≈ 24.2 µM) | 125 µg/mL (≈ 388 µM) | 0.48 µg/mL (≈ 1.49 µM) | > 250 µg/mL | 250 µg/mL (≈ 776 µM) | 15.6 µg/mL (≈ 48.4 µM) | ≥ 250 µg/mL | 0.48 µg/mL (≈ 1.49 µM) | 7.8 µg/mL (≈ 24.2 µM) | 0.98 µg/mL (≈ 3.04 µM) | 250 µg/mL (≈ 776 µM) | 250 µg/mL (≈ 776 µM) | 12.2 µg/mL (≈ 38 µM) | 80% |  |
| CSc1ccc(C(=O)/C=C/c2ccc([N+](=O)[O-])o2)cc1 [Compound 13] | ≥ 250 µg/mL | 0.98 µg/mL (≈ 3.39 µM) | 4.15 µg/mL (≈ 14.3 µM) | > 250 µg/mL | 0.98 µg/mL (≈ 3.39 µM) | > 250 µg/mL | 125 µg/mL (≈ 432 µM) | > 250 µg/mL | > 250 µg/mL | 1.95 µg/mL (≈ 6.74 µM) | ≥ 250 µg/mL | 125 µg/mL (≈ 432 µM) | 0.98 µg/mL (≈ 3.39 µM) | 0.98 µg/mL (≈ 3.39 µM) | > 250 µg/mL | > 250 µg/mL | 17.9 µg/mL (≈ 61.9 µM) |  |  |
| O=C(/C=C/c1ccc([N+](=O)[O-])o1)c1ccc(-n2ccnc2)cc1 [Compound 14] | 3.9 µg/mL (≈ 12.6 µM) | 1.95 µg/mL (≈ 6.3 µM) | 26.8 µg/mL (≈ 86.7 µM) | 31.2 µg/mL (≈ 101 µM) | 1.95 µg/mL (≈ 6.3 µM) | 15.6 µg/mL (≈ 50.4 µM) | 7.81 µg/mL (≈ 25.3 µM) |  | 7.81 µg/mL (≈ 25.3 µM) | 3.9 µg/mL (≈ 12.6 µM) | 3.9 µg/mL (≈ 12.6 µM) | 7.81 µg/mL (≈ 25.3 µM) | 1.95 µg/mL (≈ 6.3 µM) | 1.95 µg/mL (≈ 6.3 µM) | 15.6 µg/mL (≈ 50.4 µM) | 62.5 µg/mL (≈ 202 µM) | 33.4 µg/mL (≈ 108 µM) |  | 7.81 µg/mL (≈ 25.3 µM) |
| O=C(/C=C/c1ccc([N+](=O)[O-])o1)c1cc(F)c(Cl)cc1Cl [Compound 17, (E)-1-(2,4-dichloro-5-fluorophenyl)-3-(5-nitrofuran-2-yl)prop-2-en-1-one] | ≥ 250 µg/mL | > 250 µg/mL | 1.56 µg/mL (≈ 4.73 µM) | > 250 µg/mL | > 250 µg/mL | > 250 µg/mL | > 250 µg/mL | > 250 µg/mL | > 250 µg/mL | > 250 µg/mL | ≥ 250 µg/mL | > 250 µg/mL | > 250 µg/mL | 3.9 µg/mL (≈ 11.8 µM) | > 250 µg/mL | > 250 µg/mL | 68.2 µg/mL (≈ 207 µM) |  |  |
